From ChEMBL document CHEMBL2434896, “Carbonic anhydrase inhibitors. Synthesis of heterocyclic 4-substituted pyridine-3-sulfonamide derivatives and their inhibition of the human cytosolic isozymes I and II and transmembrane tumor-associated isozymes IX and XII” (Eur J Med Chem, 2013)
pKi: −log10 of the molar value. The source made the active and inactive calls. The rule behind the calls is not given here.

Tests used:
Malme-3M = assay: Growth inhibition of human MALME-3M cells at 10 uM after 48 hrs by sulforhodamine B assay; type: functional; settings: read-out: GI
LOX IMVI = assay: Growth inhibition of human LOXIMVI cells at 10 uM after 48 hrs by sulforhodamine B assay; type: functional
SNB-75 = assay: Growth inhibition of human SNB75 cells at 10 uM after 48 hrs by sulforhodamine B assay; type: functional; settings: SNB-75, 48 h, read-out: GI
SNB-19 = assay: Growth inhibition of human SNB19 cells at 10 uM after 48 hrs by sulforhodamine B assay; type: functional
SF-539 = assay: Growth inhibition of human SF539 cells at 10 uM after 48 hrs by sulforhodamine B assay; type: functional; settings: SF-539, 48 h, read-out: GI
SF-295 = assay: Growth inhibition of human SF295 cells at 10 uM after 48 hrs by sulforhodamine B assay; type: functional; settings: SF-295, 48 h, read-out: GI
SF-268 = assay: Growth inhibition of human SF268 cells at 10 uM after 48 hrs by sulforhodamine B assay; type: functional
KM12 = assay: Growth inhibition of human KM12 cells at 10 uM after 48 hrs by sulforhodamine B assay; type: functional
SW-620 = assay: Growth inhibition of human SW620 cells at 10 uM after 48 hrs by sulforhodamine B assay; type: functional
HT-29 = assay: Growth inhibition of human HT-29 cells at 10 uM after 48 hrs by sulforhodamine B assay; type: functional
HCT-15 = assay: Growth inhibition of human HCT15 cells at 10 uM after 48 hrs by sulforhodamine B assay; type: functional
HCT-116 = assay: Growth inhibition of human HCT116 cells at 10 uM after 48 hrs by sulforhodamine B assay; type: functional; settings: HCT-116, 48 h, read-out: GI
HCC 2998 = assay: Growth inhibition of human HCC2998 cells at 10 uM after 48 hrs by sulforhodamine B assay; type: functional
COLO 205 = assay: Growth inhibition of human COLO205 cells at 10 uM after 48 hrs by sulforhodamine B assay; type: functional
NCI-H522 = assay: Growth inhibition of human NCI-H522 cells at 10 uM after 48 hrs by sulforhodamine B assay; type: functional; settings: NCI-H522, 48 h, read-out: GI
NCI-H460 = assay: Growth inhibition of human NCI-H460 cells at 10 uM after 48 hrs by sulforhodamine B assay; type: functional
NCI-H322M = assay: Growth inhibition of human NCI-H322M cells at 10 uM after 48 hrs by sulforhodamine B assay; type: functional
NCI-H23 = assay: Growth inhibition of human NCI-H23 cells at 10 uM after 48 hrs by sulforhodamine B assay; type: functional
NCI-H226 = assay: Growth inhibition of human NCI-H226 cells at 10 uM after 48 hrs by sulforhodamine B assay; type: functional
HOP-92 = assay: Growth inhibition of human HOP92 cells at 10 uM after 48 hrs by sulforhodamine B assay; type: functional
HOP-62 = assay: Growth inhibition of human HOP62 cells at 10 uM after 48 hrs by sulforhodamine B assay; type: functional
[1] = Growth inhibition of human EKVX cells at 10 uM after 48 hrs by sulforhodamine B assay; type: functional; settings: read-out: GI
SR = assay: Growth inhibition of human SR cells at 10 uM after 48 hrs by sulforhodamine B assay; type: functional; settings: read-out: GI
RPMI-8226 = assay: Growth inhibition of human RPMI8226 cells at 10 uM after 48 hrs by sulforhodamine B assay; type: functional; settings: RPMI-8226, 48 h, read-out: GI
MOLT-4 = assay: Growth inhibition of human MOLT4 cells at 10 uM after 48 hrs by sulforhodamine B assay; type: functional; settings: MOLT-4, 48 h, read-out: GI
K562 = assay: Growth inhibition of human K562 cells at 10 uM after 48 hrs by sulforhodamine B assay; type: functional
HL-60(TB) = assay: Growth inhibition of human HL-60(TB) cells at 10 uM after 48 hrs by sulforhodamine B assay; type: functional; settings: HL-60, 48 h, read-out: GI
CCRF-CEM = assay: Growth inhibition of human CCRF-CEM cells at 10 uM after 48 hrs by sulforhodamine B assay; type: functional; settings: read-out: GI
Carbonic anhydrase 9 = Carbonic anhydrase 9 (Homo sapiens, UniProt Q16790); assay: Inhibition of human carbonic anhydrase 9 after 15 mins by stopped flow CO2 hydration assay
MDA-MB-468 = assay: Growth inhibition of human MDA-MB-468 cells at 10 uM after 48 hrs by sulforhodamine B assay; type: functional
T47D = assay: Growth inhibition of human T47D cells at 10 uM after 48 hrs by sulforhodamine B assay; type: functional; settings: read-out: GI
BT-549 = assay: Growth inhibition of human BT549 cells at 10 uM after 48 hrs by sulforhodamine B assay; type: functional; settings: BT-549, 48 h, read-out: GI
Hs-578T = assay: Growth inhibition of human Hs 578T cells at 10 uM after 48 hrs by sulforhodamine B assay; type: functional
MDA-MB-231 = assay: Growth inhibition of human MDA-MB-231 cells at 10 uM after 48 hrs by sulforhodamine B assay; type: functional
MCF7 = assay: Growth inhibition of human MCF7 cells at 10 uM after 48 hrs by sulforhodamine B assay; type: functional
DU-145 = assay: Growth inhibition of human DU145 cells at 10 uM after 48 hrs by sulforhodamine B assay; type: functional
PC-3 = assay: Growth inhibition of human PC3 cells at 10 uM after 48 hrs by sulforhodamine B assay; type: functional
UO-31 = assay: Growth inhibition of human UO31 cells at 10 uM after 48 hrs by sulforhodamine B assay; type: functional; settings: UO-31, 48 h, read-out: GI
TK-10 = assay: Growth inhibition of human TK10 cells at 10 uM after 48 hrs by sulforhodamine B assay; type: functional
SN12C = assay: Growth inhibition of human SN12C cells at 10 uM after 48 hrs by sulforhodamine B assay; type: functional
RXF 393 = assay: Growth inhibition of human RXF393 cells at 10 uM after 48 hrs by sulforhodamine B assay; type: functional
CAKI-1 = assay: Growth inhibition of human CAKI-1 cells at 10 uM after 48 hrs by sulforhodamine B assay; type: functional; settings: CAKI-1, 48 h, read-out: GI
ACHN = assay: Growth inhibition of human ACHN cells at 10 uM after 48 hrs by sulforhodamine B assay; type: functional
A498 = assay: Growth inhibition of human A498 cells at 10 uM after 48 hrs by sulforhodamine B assay; type: functional
786-0 = assay: Growth inhibition of human 786-0 cells at 10 uM after 48 hrs by sulforhodamine B assay; type: functional
SK-OV-3 = assay: Growth inhibition of human SKOV3 cells at 10 uM after 48 hrs by sulforhodamine B assay; type: functional
NCI/ADR-RES = assay: Growth inhibition of human NCI-ADR-RES cells at 10 uM after 48 hrs by sulforhodamine B assay; type: functional
OVCAR-5 = assay: Growth inhibition of human OVCAR5 cells at 10 uM after 48 hrs by sulforhodamine B assay; type: functional
OVCAR-4 = assay: Growth inhibition of human OVCAR4 cells at 10 uM after 48 hrs by sulforhodamine B assay; type: functional
OVCAR-3 = assay: Growth inhibition of human OVCAR3 cells at 10 uM after 48 hrs by sulforhodamine B assay; type: functional
IGROV-1 = assay: Growth inhibition of human IGROV1 cells at 10 uM after 48 hrs by sulforhodamine B assay; type: functional
UACC-62 = assay: Growth inhibition of human UACC62 cells at 10 uM after 48 hrs by sulforhodamine B assay; type: functional
SK-MEL-5 = assay: Growth inhibition of human SK-MEL-5 cells at 10 uM after 48 hrs by sulforhodamine B assay; type: functional
SK-MEL-28 = assay: Growth inhibition of human SK-MEL-28 cells at 10 uM after 48 hrs by sulforhodamine B assay; type: functional, cell-based
SK-MEL-2 = assay: Growth inhibition of human SK-MEL-2 cells at 10 uM after 48 hrs by sulforhodamine B assay; type: functional
MDA-MB-435 = assay: Growth inhibition of human MDA-MB-435 cells at 10 uM after 48 hrs by sulforhodamine B assay; type: functional
M14 = assay: Growth inhibition of human M14 cells at 10 uM after 48 hrs by sulforhodamine B assay; type: functional

Structure (SMILES): NS(=O)(=O)c1cnccc1N1CCN(c2ccccc2)CC1
- inhibition of growth at 10 µM (Malme-3M): 8%
- growth inhibition (GI) (LOX IMVI): inactive
- inhibition of growth at 10 µM (SNB-75): 1%
- growth inhibition (GI) (SNB-19): inactive
- inhibition of growth at 10 µM (SF-539): 3%
- inhibition of growth at 10 µM (SF-295): 4%
- growth inhibition (GI) (SF-268): inactive
- growth inhibition (GI) (KM12): inactive
- growth inhibition (GI) (SW-620): inactive
- growth inhibition (GI) (HT-29): inactive
- growth inhibition (GI) (HCT-15): inactive
- inhibition of growth at 10 µM (HCT-116): 1%
- growth inhibition (GI) (HCC 2998): inactive
- growth inhibition (GI) (COLO 205): inactive
- inhibition of growth at 10 µM (NCI-H522): 1%
- growth inhibition (GI) (NCI-H460): inactive
- growth inhibition (GI) (NCI-H322M): inactive
- growth inhibition (GI) (NCI-H23): inactive
- growth inhibition (GI) (NCI-H226): inactive
- growth inhibition (GI) (HOP-92): inactive
- growth inhibition (GI) (HOP-62): inactive
- inhibition of growth at 10 µM [1]: 4%
- inhibition of growth at 10 µM (SR): 8%
- inhibition of growth at 10 µM (RPMI-8226): 10%
- inhibition of growth at 10 µM (MOLT-4): 5%
- growth inhibition (GI) (K562): inactive
- inhibition of growth at 10 µM (HL-60(TB)): 2%
- inhibition of growth at 10 µM (CCRF-CEM): 7%
- pKi (Carbonic anhydrase 9): 6.91
- growth inhibition (GI) (MDA-MB-468): inactive
- inhibition of growth at 10 µM (T47D): 1%
- inhibition of growth at 10 µM (BT-549): 4%
- growth inhibition (GI) (Hs-578T): inactive
- growth inhibition (GI) (MDA-MB-231): inactive
- growth inhibition (GI) (MCF7): inactive
- growth inhibition (GI) (DU-145): inactive
- growth inhibition (GI) (PC-3): inactive
- inhibition of growth at 10 µM (UO-31): 14%
- growth inhibition (GI) (TK-10): inactive
- growth inhibition (GI) (SN12C): inactive
- growth inhibition (GI) (RXF 393): inactive
- inhibition of growth at 10 µM (CAKI-1): 8%
- growth inhibition (GI) (ACHN): inactive
- growth inhibition (GI) (A498): inactive
- growth inhibition (GI) (786-0): inactive
- growth inhibition (GI) (SK-OV-3): inactive
- growth inhibition (GI) (NCI/ADR-RES): inactive
- growth inhibition (GI) (OVCAR-5): inactive
- growth inhibition (GI) (OVCAR-4): inactive
- growth inhibition (GI) (OVCAR-3): inactive
- growth inhibition (GI) (IGROV-1): inactive
- growth inhibition (GI) (UACC-62): inactive
- growth inhibition (GI) (SK-MEL-5): inactive
- growth inhibition (GI) (SK-MEL-28): inactive
- growth inhibition (GI) (SK-MEL-2): inactive
- growth inhibition (GI) (MDA-MB-435): inactive
- growth inhibition (GI) (M14): inactive
